# Laboratory results reported in paper PMC5725665, “Discovery of a Highly Selective Cell‐Active Inhibitor of the Histone Lysine Demethylases KDM2/7” (Angewandte Chemie (International Ed. in English), 2017).
# Experiments:
# Experiment in all cases: biochemical
# Set-up in all cases: AlphaScreen histone demethylase activity assay
# JMJD3A (KDM6B) = JMJD3A (KDM6B) (Homo sapiens, UniProt O15054); settings: read-out: KDM6B pIC50 (converted)
# Excerpt: (§1) A base‐mediated 5‐endo‐trig cyclization of a C‐2‐substituted aromatic imine afforded the racemic indoline core with two adjacent stereocenters. Subsequent acylation of the indoline ring system conferred stability towards oxidation and provided a handle for modulating polarity. Finally, metal‐catalysed cross‐coupling of the aryl bromide provided access to a variety of linkers between the indoline core and pyrrolidine capping group. In total, 45 racemic compounds were synthesized, and IC50 values for inhibition of KDM2A were determined using two orthogonal enzyme activity assays: AlphaScreen25 and RapidFire MS26 (see Section S3.1 in the Supporting Information for complete inhibition data). Key structure–activity relationships are summarized below (Scheme 1 B, compounds 2–12). […] In immunofluorescence assays using HeLa cells ectopically expressing catalytically active KDM2A, a dose‐dependent increase in H3K36me2 staining was observed upon incubation with (S,S)‐6, reflecting augmented cellular H3K36me2 levels (Figure 2 A and Section S3.3). […] To profile its selectivity, (S,S)‐6 was tested for inhibitory activity against a panel of KDMs, methyllysine binding motifs, and epigenetic enzymes.
# JARID1A (KDM5A) = JARID1A (KDM5A) (Homo sapiens, UniProt P29375)
# Chain of JARID1A (KDM5A) (P29375 whole entry): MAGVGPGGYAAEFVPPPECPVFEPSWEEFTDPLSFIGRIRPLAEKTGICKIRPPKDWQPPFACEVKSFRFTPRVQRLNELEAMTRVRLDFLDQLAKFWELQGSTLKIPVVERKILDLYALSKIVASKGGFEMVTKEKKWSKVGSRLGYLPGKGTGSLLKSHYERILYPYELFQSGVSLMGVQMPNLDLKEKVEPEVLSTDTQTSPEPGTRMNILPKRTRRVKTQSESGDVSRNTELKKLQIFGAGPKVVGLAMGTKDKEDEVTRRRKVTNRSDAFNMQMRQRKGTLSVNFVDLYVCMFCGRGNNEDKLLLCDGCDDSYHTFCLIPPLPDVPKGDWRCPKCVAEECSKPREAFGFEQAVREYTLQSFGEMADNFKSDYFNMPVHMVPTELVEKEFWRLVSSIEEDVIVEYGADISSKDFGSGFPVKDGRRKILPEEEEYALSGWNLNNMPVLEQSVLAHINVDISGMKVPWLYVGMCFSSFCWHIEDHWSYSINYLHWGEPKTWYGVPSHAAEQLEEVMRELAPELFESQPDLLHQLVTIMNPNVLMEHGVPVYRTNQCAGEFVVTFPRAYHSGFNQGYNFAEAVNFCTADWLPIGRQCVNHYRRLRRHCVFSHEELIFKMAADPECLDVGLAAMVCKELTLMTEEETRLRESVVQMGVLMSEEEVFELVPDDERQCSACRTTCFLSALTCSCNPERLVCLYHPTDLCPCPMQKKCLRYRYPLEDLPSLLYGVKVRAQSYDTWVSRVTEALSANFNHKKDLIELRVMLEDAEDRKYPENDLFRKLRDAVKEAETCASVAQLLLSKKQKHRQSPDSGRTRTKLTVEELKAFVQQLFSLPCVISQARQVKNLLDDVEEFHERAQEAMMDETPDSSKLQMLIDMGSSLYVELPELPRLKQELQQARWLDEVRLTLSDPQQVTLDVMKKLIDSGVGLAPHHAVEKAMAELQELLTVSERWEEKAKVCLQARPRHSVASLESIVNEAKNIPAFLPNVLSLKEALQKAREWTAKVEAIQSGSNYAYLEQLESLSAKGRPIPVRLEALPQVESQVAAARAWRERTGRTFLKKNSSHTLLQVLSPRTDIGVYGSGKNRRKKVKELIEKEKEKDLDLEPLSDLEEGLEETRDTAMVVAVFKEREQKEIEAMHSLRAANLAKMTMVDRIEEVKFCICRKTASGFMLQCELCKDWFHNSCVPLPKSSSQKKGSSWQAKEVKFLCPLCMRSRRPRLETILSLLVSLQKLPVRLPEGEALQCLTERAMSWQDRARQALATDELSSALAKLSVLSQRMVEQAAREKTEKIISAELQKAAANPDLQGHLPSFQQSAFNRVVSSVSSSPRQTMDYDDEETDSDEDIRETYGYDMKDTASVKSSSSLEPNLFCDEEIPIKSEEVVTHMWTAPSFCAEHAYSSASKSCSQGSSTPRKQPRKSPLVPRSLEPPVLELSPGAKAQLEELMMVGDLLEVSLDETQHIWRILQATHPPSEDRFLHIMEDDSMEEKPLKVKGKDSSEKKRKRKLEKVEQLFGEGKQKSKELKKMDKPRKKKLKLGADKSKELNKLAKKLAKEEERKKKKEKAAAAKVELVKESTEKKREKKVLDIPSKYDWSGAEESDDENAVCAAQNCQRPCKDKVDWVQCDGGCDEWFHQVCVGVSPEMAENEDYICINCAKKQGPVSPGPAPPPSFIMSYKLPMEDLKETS
# Excerpt: as §1
# PHF8 (KDM7B) = PHF8 (KDM7B) (Homo sapiens, UniProt Q9UPP1); settings: read-out: KDM7B pIC50 (converted)
# Chain of PHF8 (KDM7B) (Q9UPP1 whole entry): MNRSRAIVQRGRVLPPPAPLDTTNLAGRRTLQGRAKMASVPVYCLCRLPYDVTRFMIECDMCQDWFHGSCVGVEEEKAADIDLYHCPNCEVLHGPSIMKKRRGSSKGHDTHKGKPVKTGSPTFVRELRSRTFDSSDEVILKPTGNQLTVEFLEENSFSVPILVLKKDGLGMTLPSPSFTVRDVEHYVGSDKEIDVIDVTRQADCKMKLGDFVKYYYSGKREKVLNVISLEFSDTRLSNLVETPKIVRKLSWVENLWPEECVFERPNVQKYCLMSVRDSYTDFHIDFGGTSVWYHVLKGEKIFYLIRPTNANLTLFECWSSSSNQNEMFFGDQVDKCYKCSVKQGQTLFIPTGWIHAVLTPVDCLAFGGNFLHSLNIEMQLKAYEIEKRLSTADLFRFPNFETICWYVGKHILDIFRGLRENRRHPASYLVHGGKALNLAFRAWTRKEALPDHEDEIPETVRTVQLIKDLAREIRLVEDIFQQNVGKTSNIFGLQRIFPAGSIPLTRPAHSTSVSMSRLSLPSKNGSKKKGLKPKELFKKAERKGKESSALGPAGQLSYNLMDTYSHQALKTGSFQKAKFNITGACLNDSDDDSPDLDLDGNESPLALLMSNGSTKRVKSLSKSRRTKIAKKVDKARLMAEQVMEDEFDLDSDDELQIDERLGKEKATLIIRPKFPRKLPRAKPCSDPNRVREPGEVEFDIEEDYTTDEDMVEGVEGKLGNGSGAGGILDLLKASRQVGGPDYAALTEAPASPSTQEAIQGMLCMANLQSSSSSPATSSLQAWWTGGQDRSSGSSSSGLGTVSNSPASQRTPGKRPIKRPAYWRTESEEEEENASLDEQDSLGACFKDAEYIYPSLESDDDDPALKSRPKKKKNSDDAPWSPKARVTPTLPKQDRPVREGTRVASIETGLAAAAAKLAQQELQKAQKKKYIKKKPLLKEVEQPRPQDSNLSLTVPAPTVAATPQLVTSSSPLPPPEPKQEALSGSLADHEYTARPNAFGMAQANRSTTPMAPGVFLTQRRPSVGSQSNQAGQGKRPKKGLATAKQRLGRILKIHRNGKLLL
# Excerpt: as §1
# JMJD2D (KDM4D) = target: T1, JMJD2D (KDM4D) (Homo sapiens, UniProt Q6B0I6)
# T1 sequence (Q6B0I6 1-523): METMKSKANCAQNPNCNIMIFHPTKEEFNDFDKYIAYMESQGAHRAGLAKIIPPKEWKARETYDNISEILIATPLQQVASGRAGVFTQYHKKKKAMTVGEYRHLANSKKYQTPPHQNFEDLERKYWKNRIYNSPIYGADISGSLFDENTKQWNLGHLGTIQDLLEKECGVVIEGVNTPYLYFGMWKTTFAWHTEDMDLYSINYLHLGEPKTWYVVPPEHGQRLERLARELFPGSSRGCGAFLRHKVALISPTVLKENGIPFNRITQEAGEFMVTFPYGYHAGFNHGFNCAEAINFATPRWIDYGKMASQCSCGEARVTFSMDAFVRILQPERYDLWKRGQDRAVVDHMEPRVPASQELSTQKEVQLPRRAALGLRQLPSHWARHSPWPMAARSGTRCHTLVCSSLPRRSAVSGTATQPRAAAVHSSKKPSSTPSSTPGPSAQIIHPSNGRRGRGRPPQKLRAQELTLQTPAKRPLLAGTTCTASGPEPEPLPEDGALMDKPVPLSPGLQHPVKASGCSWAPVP
# Excerpt: as §1
# JMJD2A (KDM4A) = target: T2, JMJD2A (KDM4A) (Homo sapiens, UniProt O75164); settings: read-out: KDM4A pIC50 (converted)
# T2 sequence (O75164 1-1064): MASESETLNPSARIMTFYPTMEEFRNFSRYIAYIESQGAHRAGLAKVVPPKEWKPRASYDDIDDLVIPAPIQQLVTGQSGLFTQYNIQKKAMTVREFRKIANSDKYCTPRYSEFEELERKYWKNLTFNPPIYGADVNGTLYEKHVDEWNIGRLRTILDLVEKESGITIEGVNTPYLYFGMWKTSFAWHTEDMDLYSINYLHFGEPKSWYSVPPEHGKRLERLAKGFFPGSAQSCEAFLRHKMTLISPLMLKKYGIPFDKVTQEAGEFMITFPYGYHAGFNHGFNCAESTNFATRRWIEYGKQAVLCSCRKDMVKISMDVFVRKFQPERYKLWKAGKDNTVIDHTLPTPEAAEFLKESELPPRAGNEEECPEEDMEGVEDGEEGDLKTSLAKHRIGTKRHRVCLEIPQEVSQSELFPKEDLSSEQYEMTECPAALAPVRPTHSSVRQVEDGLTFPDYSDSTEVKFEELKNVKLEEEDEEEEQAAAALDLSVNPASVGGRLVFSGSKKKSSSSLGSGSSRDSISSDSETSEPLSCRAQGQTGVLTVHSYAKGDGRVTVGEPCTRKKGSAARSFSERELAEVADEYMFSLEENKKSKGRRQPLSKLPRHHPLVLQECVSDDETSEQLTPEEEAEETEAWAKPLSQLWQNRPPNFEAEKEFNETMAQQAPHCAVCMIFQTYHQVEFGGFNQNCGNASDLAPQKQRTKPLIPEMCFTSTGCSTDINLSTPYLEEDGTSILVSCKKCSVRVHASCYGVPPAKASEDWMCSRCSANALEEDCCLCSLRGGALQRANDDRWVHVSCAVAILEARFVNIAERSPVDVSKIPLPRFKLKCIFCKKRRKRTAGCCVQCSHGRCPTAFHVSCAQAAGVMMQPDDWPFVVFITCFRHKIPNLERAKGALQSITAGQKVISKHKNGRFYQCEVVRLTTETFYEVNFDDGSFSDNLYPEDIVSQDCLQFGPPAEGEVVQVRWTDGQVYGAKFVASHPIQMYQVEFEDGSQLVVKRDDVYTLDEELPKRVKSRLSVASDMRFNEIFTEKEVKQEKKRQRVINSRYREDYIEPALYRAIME
# Excerpt: as §1
# Chain of JMJD3A (KDM6B) (O15054 whole entry): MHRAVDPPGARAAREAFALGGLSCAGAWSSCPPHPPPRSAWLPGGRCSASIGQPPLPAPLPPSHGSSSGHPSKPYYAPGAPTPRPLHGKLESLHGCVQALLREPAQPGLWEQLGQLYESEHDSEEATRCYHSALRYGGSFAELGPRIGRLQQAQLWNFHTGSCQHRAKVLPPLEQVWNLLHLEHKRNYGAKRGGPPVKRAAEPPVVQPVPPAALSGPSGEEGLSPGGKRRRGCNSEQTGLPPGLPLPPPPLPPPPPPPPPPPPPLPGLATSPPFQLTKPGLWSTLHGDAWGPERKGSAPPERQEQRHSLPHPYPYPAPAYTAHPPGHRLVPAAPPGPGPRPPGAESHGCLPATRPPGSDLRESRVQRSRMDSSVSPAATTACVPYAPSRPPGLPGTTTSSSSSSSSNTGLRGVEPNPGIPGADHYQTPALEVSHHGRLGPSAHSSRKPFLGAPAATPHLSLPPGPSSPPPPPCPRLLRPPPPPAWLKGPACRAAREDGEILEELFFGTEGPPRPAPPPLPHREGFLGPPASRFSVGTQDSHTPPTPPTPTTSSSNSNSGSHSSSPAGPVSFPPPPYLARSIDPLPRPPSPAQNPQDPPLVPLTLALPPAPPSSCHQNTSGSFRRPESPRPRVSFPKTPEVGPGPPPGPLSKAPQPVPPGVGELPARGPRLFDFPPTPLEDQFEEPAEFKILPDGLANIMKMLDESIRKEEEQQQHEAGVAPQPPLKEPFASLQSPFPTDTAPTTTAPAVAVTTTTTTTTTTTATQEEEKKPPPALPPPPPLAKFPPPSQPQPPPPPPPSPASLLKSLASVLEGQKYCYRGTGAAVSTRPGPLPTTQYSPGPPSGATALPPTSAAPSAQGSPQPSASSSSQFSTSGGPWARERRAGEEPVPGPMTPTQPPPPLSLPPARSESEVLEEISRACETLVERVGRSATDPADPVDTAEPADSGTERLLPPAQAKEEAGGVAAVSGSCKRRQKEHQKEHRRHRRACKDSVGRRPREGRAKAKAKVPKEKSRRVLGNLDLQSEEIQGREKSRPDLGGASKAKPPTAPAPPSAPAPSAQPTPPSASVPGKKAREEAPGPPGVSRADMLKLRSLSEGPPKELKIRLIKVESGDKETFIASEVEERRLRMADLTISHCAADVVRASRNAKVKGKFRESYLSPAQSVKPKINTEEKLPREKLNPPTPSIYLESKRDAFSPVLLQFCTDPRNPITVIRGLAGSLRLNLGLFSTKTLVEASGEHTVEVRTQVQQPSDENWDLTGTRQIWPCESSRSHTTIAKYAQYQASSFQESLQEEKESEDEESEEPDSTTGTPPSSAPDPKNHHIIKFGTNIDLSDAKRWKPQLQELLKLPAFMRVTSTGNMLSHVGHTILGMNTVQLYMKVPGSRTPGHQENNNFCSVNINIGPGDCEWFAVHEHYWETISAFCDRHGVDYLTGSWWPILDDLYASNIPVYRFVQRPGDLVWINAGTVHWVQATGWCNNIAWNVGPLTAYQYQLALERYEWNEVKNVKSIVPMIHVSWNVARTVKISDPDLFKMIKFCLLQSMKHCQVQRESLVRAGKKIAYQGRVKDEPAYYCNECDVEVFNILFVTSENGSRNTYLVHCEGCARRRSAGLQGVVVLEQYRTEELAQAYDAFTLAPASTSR
compound,measurement,setting,value
"CC(=O)N1c2ccccc2[C@@](C#N)(c2ccccc2)[C@@H]1c1cncc(CCCCCCCN2CCCC2)c1 [(S,S)-6]",IC50,JMJD3A (KDM6B),19.8 µM
same,inhibition at 50 µM,JARID1A (KDM5A),-20.3%
same,IC50,JARID1A (KDM5A); read-out: KDM5A pIC50 (converted),> 50.1 µM
same,IC50,PHF8 (KDM7B),22.8 µM
same,inhibition at 10 µM,JMJD2D (KDM4D),22.6%
same,IC50,JMJD2D (KDM4D); read-out: KDM4D pIC50 (converted),> 100 µM
same,IC50,JMJD2A (KDM4A),> 20 µM
